Earlier results as cited in patent US7169982B2, “Starch” (Basf Plant Science GmbH, priority 2001, dated 2007).
Where two headings read alike, the source gives them in different places.

Key:
[1] = tested on: maize starch synthase SSIIa (SEQ ID NO:8) mutant K497Q; settings: for Km: read-out: Km for ADPG
[2] = tested on: maize starch synthase SSIIa (SEQ ID NO:8) mutant K193E; settings: for Km: read-out: Km for ADPG
[3] = tested on: maize starch synthase SSIIb-2 (SEQ ID NO:7) mutant D21N; settings: read-out: Km (ADPGlc)
[4] = tested on: maize starch synthase SSIIa, wild-type, SEQ ID NO:8; settings: for Km: read-out: Km for ADPG
[5] = tested on: maize starch synthase SSIIa (SEQ ID NO:8) mutant K193Q; settings: for Km: read-out: Km for ADPG
[6] = tested on: maize starch synthase SSIIb-2 (SEQ ID NO:7) mutant E391D; settings: read-out: Km (ADPGlc)
[7] = tested on: maize starch synthase SSIIb-2 (SEQ ID NO:7) mutant D139E; settings: read-out: Km (ADPGlc)
[8] = tested on: maize starch synthase SSIIa (SEQ ID NO:8) mutant K193R; settings: for Km: read-out: Km for ADPG
[9] = tested on: maize starch synthase SSIIb-2 (SEQ ID NO:7) mutant D21E; settings: amylopectin as primer, 5 mg/ml; read-out: Km (ADPGlc)
[10] = tested on: maize starch synthase SSIIb-2 (N-terminally truncated form of mSSIIb produced in E. coli), non-mutant, SEQ ID NO:7; settings: read-out: Km (ADPGlc)

SMILES: Nc1ncnc2c1ncn2[C@@H]1O[C@H](COP(=O)(O)OP(=O)(O)O[C@H]2O[C@H](CO)[C@@H](O)[C@H](O)[C@H]2O)[C@@H](O)[C@H]1O [ADPGlc, ADP-glucose]
- Vmax ([1]; amylopectin as primer): 13.5 ± 0.21 μmol/min/mg protein
- Km ([1]; amylopectin as primer): 5620 ± 230 µM
- Vmax ([1]; glycogen as primer): 23.8 ± 2.5 μmol/min/mg protein
- Km ([1]; glycogen as primer): 6910 ± 330 µM
- Vmax ([2]; amylopectin as primer): 10.53 ± 0.5 μmol/min/mg protein
- Km ([2]; amylopectin as primer): 220 ± 10 µM
- Vmax ([2]; glycogen as primer): 25.45 ± 0.08 μmol/min/mg protein
- Km ([2]; glycogen as primer): 170 ± 20 µM
- Km ([3]; amylopectin as primer, 5 mg/ml): 1580 ± 110 µM
- Km ([3]; glycogen as primer, 20 mg/ml): 1480 ± 30 µM
- Vmax ([4]; amylopectin as primer): 49.9 ± 4.06 μmol/min/mg protein
- Km ([4]; amylopectin as primer): 110 ± 10 µM
- Vmax ([4]; glycogen as primer): 34.47 ± 1.70 μmol/min/mg protein
- Km ([4]; glycogen as primer): 120 ± 10 µM
- Vmax ([5]; amylopectin as primer): 17.4 ± 1.58 μmol/min/mg protein
- Km ([5]; amylopectin as primer): 130 ± 10 µM
- Vmax ([5]; glycogen as primer): 6.20 ± 0.01 μmol/min/mg protein
- Km ([5]; glycogen as primer): 100 ± 10 µM
- Km ([6]; amylopectin as primer, 5 mg/ml): 1370 ± 140 µM
- Km ([6]; glycogen as primer, 20 mg/ml): 1180 ± 140 µM
- Km ([7]; amylopectin as primer, 5 mg/ml): 90 ± 30 µM
- Km ([7]; glycogen as primer, 20 mg/ml): 70 ± 20 µM
- Vmax ([8]; amylopectin as primer): 18.2 ± 0.91 μmol/min/mg protein
- Km ([8]; amylopectin as primer): 150 ± 10 µM
- Vmax ([8]; glycogen as primer): 42.27 ± 3.01 μmol/min/mg protein
- Km ([8]; glycogen as primer): 150 ± 20 µM
- Km [9]: 130 ± 30 µM
- Km ([10]; amylopectin as primer, 5 mg/ml): 160 ± 30 µM
- Km ([10]; glycogen as primer, 20 mg/ml): 130 ± 20 µM
